Values of other authors as cited in patent EP3251687A1, “BIOACTIVE PEPTIDES FOR BLOOD GLUCOSE CONTROL” (Centrum Innowacji Edoradca Sp. z o.o. Spolka Komandytowa, priority 2016, dated 2017).

Test system: carboxypeptidases A, B

## enterostatin
  resistance to digestion by carboxypeptidases A, B: resistant to digestion by carboxypeptidases A, B
